How the values were obtained:
[1] = test system: HT1080 cells (endogenous IDH1 R132C); assay: 2HG fluorimetric assay / high-throughput screen, secreted 2HG in media; assay type: cell-based, human
Procedure: 2HG fluorimetric assay. N-terminal 6×-His tagged PHGDH was expressed and purified from chemically competent BL-21 E. coli using Ni-NTA agarose (Qiagen) (Grant et al., 1999). Purified protein was then dialyzed in 40 mM KPO4 buffer at 4° C. overnight. Conditioned culture media (DMEM or aMEM) containing 2HG was neutralized with 60 mM HCL for 10 minutes followed by 60 mM Tris base. A 20 μL aliquot of neutralized conditioned media was then mixed with 90 μL of optimized assay reaction mix consisting of 5 μg purified PHGDH enzyme, 12.5 μM resazurin (Sigma-Aldrich), 0.125 U/ml diaphorase (Sigma-Aldrich), 1 mM NAD (Sigma-Aldrich), 40 mM Tris-HCl pH 8.8, and incubated for 90 minutes in a 96-well plate. Resorufin fluorescence was then quantified using a FLUOstar™ OPTIMA fluorescence plate reader (BMG Labtech) with excitation and emission peaks of 544 nm and 590 nm, respectively. Measurements were background subtracted (neutralized fresh media) and normalized either to total protein or viability as measured by Alamar Blue (Naik et al., 2009).
High-throughput screening. Screening was carried out using the Beckman Coulter (Fullerton, Calif.) Core Robotics system, including an FX liquid handler, controlled by the Sagian graphical method development tool (SAMI scheduling software). The Institute of Chemistry and Cell Biology (ICCB) Known Bioactives Library (Enzo Lifescience, BML-2840-0100) was diluted 1:200 in αMEM and 50 μL were added to pre-plated HT1080 cells. After 48 hours of incubation, media was removed and 2HG in the media was measured using the fluorimetric assay. Fresh 2HG fluorimetric assay reaction mix was prepared immediately before assaying each screen plate to limit background modulation. Cell viability was determined using Alamar Blue, as described previously (Naik et al., 2009).
To identify screen hits and account for differences in compound toxicity, 2HG fluorescence was first median-centered around DMSO treatment controls within each screen plate. 2HG fluorescence was then plotted against viability such that a correlation between the two measurements could be visualized. A linear fit and 95% predictive interval (P.I.) were then determined and plotted using GraphPad Prism (GraphPad Software).

HT1080 cells = assay: GC-MS quantification of 2HG and upstream metabolites in HT1080 cells; assay type: cell-based, human
Procedure: GC-MS analysis. Metabolite extraction from cultured cells was performed as described previously by Figueroa et al. (2010). Briefly, cells were rinsed in ice cold PBS and rapidly quenched with 80% methanol spiked with 3-hydroxy-1,5-pentanedioic-2,2,3,4,4-d5 acid (CDN Isotopes, Quebec Canada) as an internal standard. Extracts were then incubated at −80° C. for 20 minutes, sonicated on ice, centrifuged at 14,000×g for 20 minutes at 4° C. to clear precipitate proteins, and supernatants transferred to vials for drying under N2. Derivatizing reagent (MSTFA (N-methyl-N-(trimethylsilyl)trifluoroacetamide):pyridine:acetonitrile 1:1:2) was added to the vials, which were then heated at 70° C. for 15 minutes.
Derivatized samples were analyzed on an Agilent 7890A gas chromatograph interfaced to an Agilent 5975C mass spectrometer. The GC column used for the study was a HP-5MS (30 m, 0.25 mm i.d., 0.25 μm film coating). A linear temperature gradient was used. The initial temperature of 80° C. was held for 2 minute and increased to 300° C. at 10° C./minute. The temperature was held at 300° C. for 2 minutes. The samples were run by electron ionization (EI) and the source temperature, electron energy, and emission current were 200° C., 70 eV, and 300 μA, respectively. The injector and transfer line temperatures were 250° C. 3-Hydroxy-1,5-pentanedioic-2,2,3,4,4-d5 acid was used as the internal standard in SIM mode for quantitation of 2-hydroxyglutaric acid. Quantitation was carried out by monitoring the ions at m/z 347 (glutamine and αKG), 348 (glutamate), 349 (2-hydroxyglutaric acid), and 354 (3-hydroxy-1,5-pentanedioic-2,2,3,4,4-d5).

[2] = test system: NHA cells expressing IDH1 R132H; assay: Soft agar colony assay; assay type: cell-based, human; conditions: IDH1 R132H astrocytes
From the text: Soft agar assay. A bottom layer of 0.6% soft agar with complete DMEM and 10% FBS was set in 6-well plates and allowed to solidify. Approximately 8,000 cells were then suspended in 0.4% soft agar and plated on top. Colonies were allowed to develop over 3-4 weeks and stained with crystal violet.

[3] = test system: PDAC cells Panc1 and MiaPaca2; assay: Growth of PDAC cells; assay type: cell-based
From the text: Cell culture, transfection, and generation of stable cell lines. HT1080, HEK293T, Panc1, and MIA PaCa-2 cells were obtained from the American Type Culture Collection (ATCC). Normal human astrocytes (NHA) immortalized with E6/E7/hTERT were a kind gift from Dr. Russell O. Pieper (University of California, San Francisco). All cells tested negative for mycoplasma infection. HT1080 cells were authenticated by genotyping for IDH1 and were confirmed to harbor a heterozygous IDH1 R132C mutation by Sanger sequencing of genomic DNA products. The remaining cell lines were not further authenticated. HEK293T, NHA, PANC-1, and MIA Paca-2 cells were maintained with complete DMEM containing 10% fetal bovine serum (FBS) and 1% penicillin/streptomycin (P/S). HT1080 cells were maintained in αMEM containing 10% FBS and 1% P/S. Glutamine-free DMEM (Life Technologies) was supplemented with 10% FBS and 1% P/S and spiked with varying amounts of L-glutamine (Cellgro) for glutamine growth curves.

## CCCOc1ccccc1-c1nc2nn[nH]c2c(=O)[nH]1 [Zaprinast, 5-(2-propoxyphenyl)-1H-[1,2,3]triazolo[4,5-d]pyrimidin-7(4H)-one]
[1]; HT1080, 48 hours
  Viability in high-throughput screen (Alamar Blue): little effect on viability
[1]; HT1080, 48 hours, screen hits top left quadrant
  2HG in high-throughput screen: reduced 2HG
[1]; HT1080 cells, 48 hours, fluorescent assay, normalized to viability
  Secreted (extracellular) 2HG: concentration-dependent reduction
[1]; in cells
  Concentration required to observe a significant reduction in 2HG: 100 to 300 µM
HT1080 cells; HT1080, 300 μM Zaprinast or 10 μM BPTES
  Cellular 3-phosphoglycerate (3PG) level: did not cause an elevation
HT1080 cells; HT1080, 48 hours
  Cellular alpha-ketoglutarate level: reduced
  Cellular glutamate level: reduced
  Intracellular 2HG by GC-MS: modulated in a concentration-dependent manner
  Intracellular glutamine level: unaffected
[2]
  Soft agar colony formation: reduced colony formation in IDH1 R132H astrocytes down to the level of vector and wild-type cells
[3]; 100 μM and 300 μM Zaprinast
  Growth of PDAC cells: significantly reduced
[3]; Zaprinast with 5 mM glutamate
  Growth of PDAC cells with glutamate supplementation: restoration of growth

— patent US20150273088A1 (Board of Regents, The University of Texas System, priority 2014, published 2015)
